Patent US20230181498A1, “NEW USE OF N,N-BIS-2-MERCAPTOETHYL ISOPHTHALAMIDE” (EMERAMED LIMITED, priority 2020, published 2023)

How the values were obtained:
Type in all cases: in vivo, human
[1] = system: common cold-like and/or flu-like illnesses; test: Treatment of Patient I (case report, daily NBMI); details: man, up to 300 mg/day NBMI almost daily for approximately 14 years; self-reported
Method: A person residing in the USA reported taking doses of up to 300 mg/day NBMI almost daily since 2006.
Before taking NBMI, the person regularly became sick with such illnesses due to their work as a university professor and being an avid outdoorsman.

[2] = system: common cold-like and/or flu-like symptoms; test: Treatment of Patient II (case report, daily NBMI); details: self-reported
Excerpt: A person residing in the USA, the spouse of Patient I, reported that they were often inflicted with common cold-like and/or flu-like symptoms due to their profession as a registered nurse.

[3] = system: viral infections; test: Treatment of Patient with ME/CFS I (case report)
Method: A person residing in Sweden and diagnosed with myalgic encephalomyelitis/chronic fatigue syndrome (ME/CFS), reported that they started to use NBMI extensively in 2010 starting with 600 mg/day for 1.5 months, then 400 mg/day for 1.5 months and then 300 mg/day for three months.
Due to ME/CFS, the person was often inflicted with viral infections.

[4] = system: viral infections; test: Treatment of Patient with ME/CFS II (case report); details: person with ME/CFS and long history of viral infections, 300 mg/day NBMI from 2010; self-reported
Excerpt: The person was often sick and had, therefore, a poor quality of life.

[5] = person with ME/CFS, 2010, 600 then 400 then 300 mg/day, self-reported

SMILES: O=C(NCCS)c1cccc(C(=O)NCCS)c1 [NBMI, N,N-bis-2-mercaptoethyl isophthalamide]
- occurrence of common cold-like and/or flu-like illnesses [1]: has not become unwell with common cold-like and/or flu-like illnesses
- common cold-like and/or flu-like symptoms, recent years ([2]; person, NBMI daily, over the past 5 years): has not experienced any such symptoms
- flu-like symptoms after starting NBMI ([2]; registered nurse, NBMI daily since 2010): great decrease in having flu-like symptoms
- frequency and severity of infections on restarting NBMI ([3]; person with ME/CFS, 300 mg/day again from late 2011, self-reported): got fewer and less severe
- frequency of viral infections ([3]; person with ME/CFS, 2010, 600 mg/day for 1.5 months, then 400 mg/day for 1.5 months, then 300 mg/day for three months, self-reported): viral infections became fewer
- intensity of viral infections (pain, headache, fatigue, time bedridden) [3, 5]: intensity was less severe
- recovery time from viral infections [3, 5]: recovery time was quicker
- frequency and severity of viral infections after halting the treatment ([3]; person with ME/CFS, after halting NBMI in summer 2010, self-reported): viral infections became more frequent and more severe
- severity and duration of virus infection when NBMI is taken during infection ([3]; person with ME/CFS, occasional NBMI when inflicted with a virus infection, compared with not taking NBMI, patient's impression): less severe and shorter in duration
- occurrence of viral infections [4]: no longer suffered from viral infections
